Experimental data from patent publication US20240254129A1, “HETEROCYCLIC COMPOUNDS AND USES THEREOF” (Kumquat Biosciences Inc., priority 2021, published 2024).

Tests used:
[1] = target: GST-tagged K-Ras mutant / His-tagged hSOS1 (Homo sapiens, UniProt P01116); assay: HTRF assay, K-Ras mutant / SOS1 interaction; assay type: binding; conditions: compound nos. 102-196, general methodology of example 5; read-out: IC50 against mutant Kras
Outline: (§1)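 HTRF read-out (ex 337, em 620 and 665 nm) of Ras–SOS1 equilibrium binding: Eu-anti-GST on GST-K-Ras, XL665-anti-6His on His-hSOS1. Incubation about 10 min or longer; IC50 fitted from emission ratio, compounds in duplicate at 10 μM down to 0.01 μM.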

[2] = target: T1, wildtype Kras / hSOS1 (Homo sapiens, UniProt P01116); assay: HTRF assay, wildtype Kras / SOS1 interaction; assay type: binding; conditions: compound nos. 102-196, general methodology of example 5; read-out: IC50 against wildtype Kras
T1 construct: made in house; host or cells: E. coli BL21 (DE3)
Outline: as §1

T1 sequence (P01116 1-188 isoform P01116-2): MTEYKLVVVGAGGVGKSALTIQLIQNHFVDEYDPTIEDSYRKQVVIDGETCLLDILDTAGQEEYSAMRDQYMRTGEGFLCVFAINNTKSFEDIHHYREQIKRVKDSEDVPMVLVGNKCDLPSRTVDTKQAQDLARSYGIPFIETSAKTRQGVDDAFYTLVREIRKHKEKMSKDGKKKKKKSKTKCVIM
Chain of GST-tagged K-Ras mutant / His-tagged hSOS1 (P01116 whole entry G12D, form open): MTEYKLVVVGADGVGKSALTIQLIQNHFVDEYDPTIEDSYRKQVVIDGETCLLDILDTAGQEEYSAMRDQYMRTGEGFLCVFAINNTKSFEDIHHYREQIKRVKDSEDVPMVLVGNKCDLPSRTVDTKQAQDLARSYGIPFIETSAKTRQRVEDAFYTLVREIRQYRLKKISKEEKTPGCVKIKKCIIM

SMILES	IC50 [1] [nM]	IC50 [2] [nM]
CN1CCC[C@H]1COc1nc(N2CCCC(O)CC2)c2cc(Cl)c(-c3cccc4sc(N)nc34)c(F)c2n1 (stereo partly drawn) [Compound 173, 1-(7-(2-aminobenzo[d]-thiazol-4-yl)-6-chloro-8-fluoro-2-(((S)-1-methyl-pyrrolidin-2-yl)methoxy)-quinazolin-4-yl)azepan-4-ol]	< 500	< 500
Cc1ccc2cnn(C)c2c1-c1c(Cl)cc2c(N3CCCCC(F)(F)C3)nc(OC[C@@]34CCCN3C[C@H](F)C4)nc2c1F [Compound 179, 6-chloro-4-(3,3-difluoro-azepan-1-yl)-7-(1,6-dimethyl-1H-indazol-7-yl)-8-fluoro-2-(((2R,7aS)-2-fluoro-tetrahydro-1H-pyrrolizin-7a(5H)-yl)-methoxy)quinazoline]	> 500	> 500
CN1CCC[C@H]1COc1nc(N2C3CCNCC2CC3)c2cc(Cl)c(-c3cccc4sc(N)nc34)c(F)c2n1 (stereo partly drawn) [Compound 180, 4-(4-(3,9-diazabicyclo-[4.2.1]nonan-9-yl)-6-chloro-8-fluoro-2-(((S)-1-methyl-pyrrolidin-2-yl)methoxy)-quinazolin-7-yl)benzo[d]-thiazol-2-amine]	< 500	> 500
CN1CCC[C@H]1COc1nc(N2CCNCC(F)(F)C2)c2cc(Cl)c(-c3cccc4nc(N)sc34)c(F)c2n1 [Compound 184, 7-(6-chloro-4-(6,6-difluoro-1,4-diazepan-1-yl)-8-fluoro-2-(((S)-1-methylpyrrolidin-2-yl)methoxy)quinazolin-7-yl)benzo[d]thiazol-2-amine]	> 500	> 500
CN1CCC[C@H]1COc1nc(N2CCNCC(F)(F)C2)c2cc(Cl)c(-c3cccc4oc(C#N)nc34)c(F)c2n1 [Compound 185, 4-(6-chloro-4-(6,6-difluoro-1,4-diazepan-1-yl)-8-fluoro-2-(((S)-1-methylpyrrolidin-2-yl)methoxy)quinazolin-7-yl)benzo[d]oxazole-2-carbonitrile]	> 500	> 500
CN1CCC[C@H]1COc1nc(N2CCNCC(F)(F)C2)c2cc(Cl)c(-c3cccc4nc(N)n(C)c34)c(F)c2n1 [Compound 186, 7-(6-chloro-4-(6,6-difluoro-1,4-diazepan-1-yl)-8-fluoro-2-(((S)-1-methylpyrrolidin-2-yl)methoxy)quinazolin-7-yl)-1-methyl-1H-benzo[d]-imidazol-2-amine]	> 500	> 500
Cc1cc(N)nc(-c2c(Cl)cc3c(N4CCNCC(F)(F)C4)nc(OC[C@@H]4CCCN4C)nc3c2F)c1 [Compound 189, (S)-6-(6-chloro-4-(6,6-difluoro-1,4-diazepan-1-yl)-8-fluoro-2-((1-methyl-pyrrolidin-2-yl)methoxy)-quinazolin-7-yl)-4-methyl-pyridin-2-amine]	> 500	> 500
Cc1ccnc(C(C)C)c1-n1c(=O)nc(N2CCNCC(F)(F)C2)c2cc(F)c(-c3c(O)cccc3F)nc21 [Compound 195, 4-(6,6-difluoro-1,4-diazepan-1-yl)-6-fluoro-7-(2-fluoro-6-hydroxyphenyl)-1-(2-isopropyl-4-methylpyridin-3-yl)pyrido[2,3-d]pyrimidin-2(1H)-one]	> 500	> 500

Next, values leading:

IC50 [1] [nM]	IC50 [2] [nM]	SMILES
< 500	< 500	Nc1nc2c(-c3c(Cl)cc4c(N5CCNCC(F)(F)C5)nc(OC[C@@]56CCCN5C[C@H](F)C6)nc4c3F)cccc2o1 [Compound 174, 4-(6-chloro-4-(6,6-difluoro-1,4-diazepan-1-yl)-8-fluoro-2-(((2R,7aS)-2-fluorotetra-hydro-1H-pyrrolizin-7a(5H)-yl)methoxy)quinazolin-7-yl)benzo[d]oxazol-2-amine]
< 500	< 500	Cc1ccc2cnn(C)c2c1-c1c(Cl)cc2c(N3CCNCC(F)(F)C3)nc(OC[C@@]34CCCN3C[C@H](F)C4)nc2c1F [Compound 175, 6-chloro-4-(6,6-difluoro-1,4-diazepan-1-yl)-7-(1,6-dimethyl-1H-indazol-7-yl)-8-fluoro-2-(((2R,7aS)-2-fluorotetrahydro-1H-pyrrolizin-7a(5H)-yl)meth-oxy)quinazoline]
> 500	> 500	CN1CCC[C@H]1COc1nc(N2CCNCC(F)(F)C2)c2cc(Cl)c(-c3cccc4oc(O)nc34)c(F)c2n1 [Compound 176, 4-(6-chloro-4-(6,6-difluoro-1,4-diazepan-1-yl)-8-fluoro-2-(((S)-1-methylpyrrolidin-2-yl)methoxy)quinazolin-7-yl)benzo[d]oxazol-2-ol]
> 500	> 500	CN1CCC[C@H]1COc1nc(N2CCNCC(F)(F)C2)c2cc(Cl)c(-c3cccc4sc(O)nc34)c(F)c2n1 [Compound 177, 4-(6-chloro-4-(6,6-difluoro-1,4-diazepan-1-yl)-8-fluoro-2-(((S)-1-methylpyrrolidin-2-yl)methoxy)quinazolin-7-yl)benzo[d]thiazol-2-ol]
> 500	> 500	CN1CCC[C@H]1COc1nc(N2CCNCC(F)(F)C2)c2cc(Cl)c(-c3cccc4[nH]c(N)nc34)c(F)c2n1 [Compound 178, 4-(6-chloro-4-(6,6-difluoro-1,4-diazepan-1-yl)-8-fluoro-2-(((S)-1-methylpyrrolidin-2-yl)methoxy)quinazolin-7-yl)-1H-benzo[d]imidazol-2-amine]
< 500	< 500	CN1CCC[C@H]1COc1nc(N2CCCCC(F)C2)c2cc(Cl)c(-c3cccc4sc(N)nc34)c(F)c2n1 (stereo partly drawn) [Compound 181, 4-(6-chloro-8-fluoro-4-(3-fluoroazepan-1-yl)-2-(((S)-1-methylpyrrolidin-2-yl)-methoxy)quinazolin-7-yl)-benzo[d]thiazol-2-amine]
> 500	> 500	CN1CCC[C@H]1COc1nc(N2CCCCC(F)(F)C2)c2cc(Cl)c(-c3cccn4nc(N)nc34)c(F)c2n1 [Compound 182, (S)-8-(6-chloro-4-(3,3-difluoroazepan-1-yl)-8-fluoro-2-((1-methylpyrrol-idin-2-yl)methoxy)quin-azolin-7-yl)[1,2,4]triazolo-[1,5-a]pyridin-2-amine]
> 500	> 500	CN1CCC[C@H]1COc1nc(N2CCNCC(F)(F)C2)c2cc(Cl)c(-c3cccc4ccc(N)nc34)c(F)c2n1 [Compound 183, 8-(6-chloro-4-(6,6-difluoro-1,4-diazepan-1-yl)-8-fluoro-2-(((S)-1-methylpyrrolidin-2-yl)methoxy)quinazolin-7-yl)quinolin-2-amine]
< 500	< 500	N#CCC1CNCCN(c2nc(OCC34CCCN3CCC4)nc3c(F)c(-c4ccc(F)c5sc(N)nc45)c(Cl)cc23)C1 (stereo not drawn) [Compound 187, 2-(1-(7-(2-amino-7-fluoro-benzo[d]thiazol-4-yl)-6-chloro-8-fluoro-2-((tetra-hydro-1H-pyrrolizin-7a(5H)-yl)methoxy)quin-azolin-4-yl)-1,4-diazepan-6-yl)acetonitrile]
< 500	< 500	Nc1nc2c(-c3c(Cl)cc4c(N5CCCCC(F)C5)nc(OC[C@@]56CCCN5C[C@H](F)C6)nc4c3F)ccc(F)c2s1 (stereo partly drawn) [Compound 190, 4-(6-chloro-8-fluoro-4-(3-fluoroazepan-1-yl)-2-(((2R,7aS)-2-fluorotetra-hydro-1H-pyrrolizin-7a(5H)-yl)methoxy)quin-azolin-7-yl)-7-fluorobenzo-[d]thiazol-2-amine]
